{"source": "patent US20120135864A1", "about": "“POLLINATION IMPROVER” (TAMINCO, NAAMLOZE VENNOOTSCHAP, priority 2009, published 2012)", "assay_type_in_all_cases": "in vivo", "key": {"[1]": {"test_system": "Winter Barley cv Carat", "test": "Winter barley pot trial under glasshouse conditions: grain yield and thousand grain weight", "conditions": "for Grain Yield (%) T1 Timing / Grain Yield (%) T2 Timing: untreated = 100; for Grain Yield (g per Pot) T1 Timing: sprayed at T1 (Growth Stage 52: one quarter ear emergence); for Grain Yield (g per Pot) T2 Timing: sprayed at T2 (Growth Stage 65-69: at time of anthesis)", "method": "(§1) The applied concentration of the composition of the present invention can vary widely depending on the water volume applied to plants as well as other factors such as plant age and size, and plant sensitivity to the final seed yield and crop quality improver. […] The rate of other components such as spreaders and stickers can be 50-200 ml per ha. The rate of cytokinin can typically be 0.001 to 1.0 percent of the formulation. […] ADD=at least one from class (f) each at <3 g/l, plus at least one from class (c). Winter Barley: […] Harvested: 28 July. […] Harvested: 28 July. Navy Bean: […] Harvested: 28 August. […] Harvested: 28 August. Statistical Layout: Randomised Complete Block trial, under glasshouse conditions, United Kingdom."}, "[2]": {"test_system": "Winter Wheat cv Limerick", "test": "Winter wheat pot trial under glasshouse conditions: grain yield and thousand grain weight", "conditions": "for Grain Yield (%) T1 Timing / Grain Yield (%) T2 Timing: relative to untreated; for Grain Yield (g per Pot) T1 Timing: sprayed at T1 (Growth Stage 52: one quarter ear emergence); for Grain Yield (g per Pot) T2 Timing: sprayed at T2 (Growth Stage 65-69: at time of anthesis)", "method": "as §1"}, "[3]": {"test_system": "Phaseolus vulgaris (NAVY BEAN) cv Primel", "test": "Navy bean pot trial under glasshouse conditions: seed yield and seed weight", "conditions": "for Seed Yield (%) T1 Timing / Seed Yield (%) T2 Timing: relative to untreated; for Seed Yield (g per Pot) T1 Timing: sprayed at T1 (Growth Stage R1: first flowering); for Seed Yield (g per Pot) T2 Timing: sprayed at T2 (Growth Stage R3)", "method": "as §1"}, "[4]": {"test_system": "Glycine max (SOYBEAN)", "test": "Soybean pot trial under glasshouse conditions: seed yield and thousand seed weight", "conditions": "for Seed Yield (%) T1 Timing / Seed Yield (%) T2 Timing: relative to untreated; for Seed Yield (g per Pot) T1 Timing: sprayed at T1 (Growth Stage R1: first flowering); for Seed Yield (g per Pot) T2 Timing: sprayed at T2 (Growth Stage R3)", "method": "as §1"}, "[5]": {"test_system": "Winter Wheat (Mean of 3 Varieties)", "test": "Grain quality improvement pot trial, winter wheat", "text": "(§2) Thousand grain weight, specific weight and % screenings are different aspects of crop quality. For example, specific weight (bushel weight) is the weight of a given volume of grain, expressed in kg/hl. For example, growers have to meet standards of 76 for wheat and 64 for barley in order to meet minimum quality requirements. Varieties with the highest values are those most likely to produce acceptable grain lots. Aspects of crop quality for different varieties of crops are found in The Pocket Guide to Varieties of Cereals, Oilseeds and Pulses (NIAB Association). Other quality standards include, but are not limited to, endosperm texture, protein content (%), Hagberg falling number, Zeleny volume (cc), Chopin Alveograph, malt extract, IBD approval—brewing, IBD approval—distilling, IBD approval—grain distilling, sieving %<2.25 mm, sieving %<2.5 mm, nitrogen content, kernel content, sieving %<2.0 mm, oil content (%), oil type, hilum colour, overseas malting, hot water extract, and seed colour. Examples of % screenings are 2.2 mm and 2.5 mm. Such measures can be used in determining the effect provided by the present invention.\n(§3) The TAMPF formulation example in these experiments included AN+AC+ADD, applied at the rate of 1 litre per hectare. ADD=at least one from class (f) each at <3 g/l, plus at least one from class (c).\n(§4) Trials information: grown in pots in standard multi-purpose compost of pH 6.5, at 6/7 seeds per 9 cm pot (winter wheat), or 5/6 seeds per 9 cm pot (winter barley). Sprayed at the start of the anthesis growth stage (=shortly after ear emergence: GS60)"}, "[6]": {"test_system": "Winter Barley (Mean of 3 Varieties)", "test": "Grain quality improvement pot trial, winter barley", "text": "as §2, §3, §4"}, "[7]": {"conditions": "sprayed at start of anthesis (GS60)"}}}
{"smiles": "CC(=O)Nc1ccc(O)cc1", "note": "[AC, N-(4-hydroxypheyl)acetamide, reference compound]", "values": [{"measurement": "Grain Yield (%) T1 Timing", "setting": "[1]; T1 (Growth Stage 52)", "value": 102.8, "unit": "%"}, {"measurement": "Grain Yield (%) T2 Timing", "setting": "[1]; T2 (Growth Stage 65-69)", "value": 98.8, "unit": "%"}, {"measurement": "Grain Yield (g per Pot) T1 Timing", "setting": "[1]", "value": 25.5, "unit": "g per Pot"}, {"measurement": "Grain Yield (g per Pot) T2 Timing", "setting": "[1]", "value": 24.5, "unit": "g per Pot"}, {"measurement": "Grain Yield (%) T1 Timing", "setting": "[2]; T1 (Growth Stage 52)", "value": 98.0, "unit": "%"}, {"measurement": "Grain Yield (%) T2 Timing", "setting": "[2]; T2 (Growth Stage 65-69)", "value": 103.7, "unit": "%"}, {"measurement": "Grain Yield (g per Pot) T1 Timing", "setting": "[2]", "value": 29.3, "unit": "g per Pot"}, {"measurement": "Grain Yield (g per Pot) T2 Timing", "setting": "[2]", "value": 31.0, "unit": "g per Pot"}, {"measurement": "Seed Yield (%) T1 Timing", "setting": "[3]; T1 (Growth Stage R1)", "value": 98.0, "unit": "%"}, {"measurement": "Seed Yield (%) T2 Timing", "setting": "[3]; T2 (Growth Stage R3)", "value": 99.8, "unit": "%"}, {"measurement": "Seed Yield (g per Pot) T1 Timing", "setting": "[3]", "value": 53.3, "unit": "g per Pot"}, {"measurement": "Seed Yield (g per Pot) T2 Timing", "setting": "[3]", "value": 54.3, "unit": "g per Pot"}, {"measurement": "Seed Yield (%) T1 Timing", "setting": "[4]; T1 (Growth Stage R1)", "value": 101.8, "unit": "%"}, {"measurement": "Seed Yield (%) T2 Timing", "setting": "[4]; T2 (Growth Stage R3)", "value": 101.8, "unit": "%"}, {"measurement": "Seed Yield (g per Pot) T1 Timing", "setting": "[4]", "value": 33.5, "unit": "g per Pot"}, {"measurement": "Seed Yield (g per Pot) T2 Timing", "setting": "[4]", "value": 33.5, "unit": "g per Pot"}]}
{"smiles": "Nc1ccccc1C(=O)O", "note": "[AN, anthranilic acid]", "values": [{"measurement": "Grain Yield (%) T1 Timing", "setting": "[1]; T1 (Growth Stage 52)", "value": 96.8, "unit": "%"}, {"measurement": "Grain Yield (%) T2 Timing", "setting": "[1]; T2 (Growth Stage 65-69)", "value": 98.8, "unit": "%"}, {"measurement": "Grain Yield (g per Pot) T1 Timing", "setting": "[1]", "value": 24.0, "unit": "g per Pot"}, {"measurement": "Grain Yield (g per Pot) T2 Timing", "setting": "[1]", "value": 24.5, "unit": "g per Pot"}, {"measurement": "Grain Yield (%) T1 Timing", "setting": "[2]; T1 (Growth Stage 52)", "value": 99.7, "unit": "%"}, {"measurement": "Grain Yield (%) T2 Timing", "setting": "[2]; T2 (Growth Stage 65-69)", "value": 98.7, "unit": "%"}, {"measurement": "Grain Yield (g per Pot) T1 Timing", "setting": "[2]", "value": 29.8, "unit": "g per Pot"}, {"measurement": "Grain Yield (g per Pot) T2 Timing", "setting": "[2]", "value": 29.5, "unit": "g per Pot"}, {"measurement": "Seed Yield (%) T1 Timing", "setting": "[3]; T1 (Growth Stage R1)", "value": 102.0, "unit": "%"}, {"measurement": "Seed Yield (%) T2 Timing", "setting": "[3]; T2 (Growth Stage R3)", "value": 98.0, "unit": "%"}, {"measurement": "Seed Yield (g per Pot) T1 Timing", "setting": "[3]", "value": 55.5, "unit": "g per Pot"}, {"measurement": "Seed Yield (g per Pot) T2 Timing", "setting": "[3]", "value": 53.3, "unit": "g per Pot"}, {"measurement": "Seed Yield (%) T1 Timing", "setting": "[4]; T1 (Growth Stage R1)", "value": 99.7, "unit": "%"}, {"measurement": "Seed Yield (%) T2 Timing", "setting": "[4]; T2 (Growth Stage R3)", "value": 101.2, "unit": "%"}, {"measurement": "Seed Yield (g per Pot) T1 Timing", "setting": "[4]", "value": 32.8, "unit": "g per Pot"}, {"measurement": "Seed Yield (g per Pot) T2 Timing", "setting": "[4]", "value": 33.3, "unit": "g per Pot"}]}
{"smiles": "O=S(O)(O)=S", "note": "[Thiosulphate]", "values": [{"measurement": "Thousand Grain Weight (g) T1 Timing", "setting": "[1]; T1 (Growth Stage 52)", "value": 46.5, "unit": "g"}, {"measurement": "Grain Yield (%) T1 Timing", "setting": "[1]; T1 (Growth Stage 52)", "value": 102.8, "unit": "%"}, {"measurement": "Thousand Grain Weight (g) T2 Timing", "setting": "[1]; T2 (Growth Stage 65-69)", "value": 46.4, "unit": "g"}, {"measurement": "Grain Yield (%) T2 Timing", "setting": "[1]; T2 (Growth Stage 65-69)", "value": 102.4, "unit": "%"}, {"measurement": "Grain Yield (g per Pot) T1 Timing", "setting": "[1]", "value": 25.5, "unit": "g per Pot"}, {"measurement": "Grain Yield (g per Pot) T2 Timing", "setting": "[1]", "value": 25.4, "unit": "g per Pot"}, {"measurement": "Thousand Grain Weight (g) T1 Timing", "setting": "[2]; T1 (Growth Stage 52)", "value": 50.4, "unit": "g"}, {"measurement": "Grain Yield (%) T1 Timing", "setting": "[2]; T1 (Growth Stage 52)", "value": 108.4, "unit": "%"}, {"measurement": "Thousand Grain Weight (g) T2 Timing", "setting": "[2]; T2 (Growth Stage 65-69)", "value": 50.7, "unit": "g"}, {"measurement": "Grain Yield (%) T2 Timing", "setting": "[2]; T2 (Growth Stage 65-69)", "value": 111.7, "unit": "%"}, {"measurement": "Grain Yield (g per Pot) T1 Timing", "setting": "[2]", "value": 32.4, "unit": "g per Pot"}, {"measurement": "Grain Yield (g per Pot) T2 Timing", "setting": "[2]", "value": 33.4, "unit": "g per Pot"}, {"measurement": "Indiv Seed Weight (mg) T1 Timing", "setting": "[3]; T1 (Growth Stage R1)", "value": 276, "unit": "mg"}, {"measurement": "Seed Yield (%) T1 Timing", "setting": "[3]; T1 (Growth Stage R1)", "value": 108.6, "unit": "%"}, {"measurement": "Indiv Seed Weight (mg) T2 Timing", "setting": "[3]; T2 (Growth Stage R3)", "value": 275, "unit": "mg"}, {"measurement": "Seed Yield (%) T2 Timing", "setting": "[3]; T2 (Growth Stage R3)", "value": 109.9, "unit": "%"}, {"measurement": "Seed Yield (g per Pot) T1 Timing", "setting": "[3]", "value": 59.1, "unit": "g per Pot"}, {"measurement": "Seed Yield (g per Pot) T2 Timing", "setting": "[3]", "value": 59.8, "unit": "g per Pot"}, {"measurement": "Thousand Seed Weight (g) T1 Timing", "setting": "[4]; T1 (Growth Stage R1)", "value": 160, "unit": "g"}, {"measurement": "Seed Yield (%) T1 Timing", "setting": "[4]; T1 (Growth Stage R1)", "value": 108.8, "unit": "%"}, {"measurement": "Thousand Seed Weight (g) T2 Timing", "setting": "[4]; T2 (Growth Stage R3)", "value": 159, "unit": "g"}, {"measurement": "Seed Yield (%) T2 Timing", "setting": "[4]; T2 (Growth Stage R3)", "value": 110.3, "unit": "%"}, {"measurement": "Seed Yield (g per Pot) T1 Timing", "setting": "[4]", "value": 35.8, "unit": "g per Pot"}, {"measurement": "Seed Yield (g per Pot) T2 Timing", "setting": "[4]", "value": 36.3, "unit": "g per Pot"}, {"measurement": "% Screenings (2.2 mm)", "setting": "[5]; sprayed at GS60, 2.2 mm", "value": 4.5, "unit": "%"}, {"measurement": "% Screenings (2.5 mm)", "setting": "[5]; sprayed at GS60, 2.5 mm", "value": 8.0, "unit": "%"}, {"measurement": "Specific Weight (kg/hl)", "setting": "[5]; [7]", "value": 74.0, "unit": "kg/hl"}, {"measurement": "% Screenings (2.2 mm)", "setting": "[6]; sprayed at GS60, 2.2 mm", "value": 4.8, "unit": "%"}, {"measurement": "% Screenings (2.5 mm)", "setting": "[6]; sprayed at GS60, 2.5 mm", "value": 7.3, "unit": "%"}, {"measurement": "Specific Weight (kg/hl)", "setting": "[6]; [7]", "value": 68.3, "unit": "kg/hl"}]}
